Assay results as given in patent US11242555B2, “Molecular sensors and uses thereof” (New York University, priority 2018, dated 2022).
“Also recorded” adds a separate entry of the source. Starred links: 1 amine or outer side, 2 acyl side, 3 side chain; linkers in the order of their positions; H or OH if unused. Positions of bridges follow the written chain, without caps; N, C: chain ends. Non-standard residues stand in square brackets, D forms with d. Residues, ends and D or L forms follow the SMILES beside them. Chains are numbered I, II in the order given. Actinocin(9to1) = Cc1c2oc3c(C)ccc(C(=O)[*:1])c3nc-2c(C(=O)[*:2])c(N)c1=O; NMeV = CN[C@H](C(=O)O)C(C)C; Sar = CNCC(=O)O

Columns and labels:
[1] = tested on: nuclei of cells in culture; assay: Flexible sensor FRET ratio within nuclei of cells treated with chromatin-disrupting drugs (macromolecular crowding); type: cell-based; conditions: flexible sensor within nuclei of cells in culture medium
Experimental: The flexible molecular sensors reports on the local macromolecular crowding within living cells in culture (FIG. 5). The sensor was introduced into cells by liposome transfection. After a short incubation period of 45 minutes, the cells plated on an imaging well were washed and imaged using scanning laser confocal microscopy. The cells were then imaged by exciting the donor (Cy3) and imaging the fluorescence of Cy3 and Cy5 (acceptor) in the appropriate spectral ranges (top two images). The false-colored images can be merged therefore producing another false color image where green (FIG. 5—top left) indicates a small FRET ratio and red (FIG. 5—top right) a large FRET ratio an intermediate values being yellow/orange (FIG. 5—bottom left). A quantitative measurement of the FRET ratio is represented as a gray scale image (FIG. 5—bottom right) where each pixel is in the ratio of the intensity in the Cy5 channel divided by that in the Cy3 channel. Local variations indicate local differences in the degree of macromolecular crowding.
Drugs that disrupt chromatin compaction result in a more crowded nucleus (FIG. 11). The FRET ratio was measured within the nuclei of cells in culture medium in the absence and presence of drugs that disrupt chromatin structure. Three drugs that disrupt chromatin in different ways were used: trichostatin A (TSA) and tubacin both of which inhibit histone deacetylases, and etoposide which forms a complex with DNA and topisomerase II resulting in the accumulation of DNA breaks.

[2] = tested on: double-stranded oligo probe (DNA); assay: Linear oligo probe titration with intercalating drug in solution (FRET ratio, Hill plot binding constant); conditions: for binding constant: Hill plot fit of fraction of intercalated bases vs drug concentration, all binding sites assumed occupied at saturation
DNA within living cells = assay: Linear probe in living cells transfected with the oligo probe (confocal FRET ratio); type: cell-based; conditions: for FRET ratio (Cy5:Cy3) in cells in presence of intercalating drug vs no drug: cells transfected with linear probe, drug in culture medium
Experimental: Cells transfected with the oligo probe were imaged by exciting the donor (Cy3) and imaging the fluorescence of Cy3 (A) and Cy5 (acceptor) (B) in the appropriate spectral ranges using a confocal microscope. (C) The false-colored images can be merged, therefore producing a false color image where orange indicates a large FRET ratio. […] (G) The drop in the FRET ratio is measured by calculating the ratio of the Cy5 signal to that of Cy3 within the nuclei of cells in presence of the three intercalating compounds.
The molecular sensors were used in cell culture according to the following: 1) the desired cells were prepared in glass-bottom culture dishes or wells to a confluence lower than 70%. 2) Two hours before imaging, a desired transfection protocol (e.g., liposome transfection), and the like) is used with either sensor depending on the desired mode of DNA binding to be investigated. 3) After the transfection period, the culture was washed from excess sensors. 4) The culture disk was transferred to the confocal microscope for imaging. […] 6) If using filter cubes use the appropriate cubes to image donor fluorescence in one channel and acceptor fluorescence in the other. If using spectral imaging set the imaging wavelength windows for the two fluorophores. 7) Cells were identified that have been successfully transfected as indicated by fluorescence throughout the cell. 8) Images were acquired in both channels. 9) Software to calculate the ratio of acceptor/donor fluorescence (the FRET ratio) for the desired regions within the imaged cells was used. 10) The desired drug to be tested was added. 11) The cells were imaged again and the FRET ratio was calculated as a function of the desired variable: e.g. time, drug concentration, region within the cell, etc. A change in the FRET ratio indicates DNA drug binding.
Using laser scanning confocal microscopy the cells are imaged by exciting the donor (Cy3) and imaging the fluorescence of Cy3 and Cy5 (acceptor) in the appropriate spectral ranges (images A, B, D, E). The false-colored images can be merged therefore producing a false color image where green indicates a small FRET ratio and red a large FRET ratio and intermediate values being yellow/orange (images C and F). […] The FRET ratio can be measured from the ratio of Cy5:Cy3 intensities.
Cells were transfected with the sensor and imaged in culture medium as described in FIG. 17. […] The average FRET ratio measured as Cy5:Cy3 intensities in the images is plotted as a function of time in the lower right panel.

[3] = tested on: double-stranded oligo probe (DNA); assay: High-throughput screen of a compound library with the linear oligo probe (FRET ratio, 384 well plate); type: binding
Experimental: A library of compounds was mixed with the oligo probe in 384 well plate format. (A) The fluorescence spectra of the probe were recorded on a plate reader as in FIG. 21 and the FRET ratio (Cy5/Cy3 intensity) was calculated. […] (B) A library consisting of 1600 compounds from FDA and internationally approved drugs was screened to detect potential intercalators that can be drug repositioning targets.
The molecular sensors were used in vitro according to the following: 1) The sensors were diluted in a NaCl solution (e.g., in a 50-100 mM NaCl solution) and 0.2% BSA solution to a concentration of 1 μM. This can be adjusted depending on the sensitivity of the fluorescence measurement device. 2) The fluorescence spectrum was measured using a fluorescence spectrophotometer, a plate reader, or any other ad-hoc means. […] 3) The molecular species was added to be characterized for DNA binding properties or to be tested for intercalating or groove binding ability. The appropriate sensor is used (e.g., a linear or flexible molecular sensor). The fluorescence spectrum was measured again using the same methods and settings. 4) The FRET ratio was compared for both the sensor alone and sensor plus tested molecule. The FRET ratio is calculated by dividing the peak intensity of the acceptor fluorescence by that of the donor fluorescence.

| SMILES | FRET ratio in nuclei of treated cells compared to untreated cells [1] | binding constant [2] | FRET ratio (Cy5:Cy3) in cells in presence of intercalating drug vs no drug (DNA within living cells) | also measured |
| --- | --- | --- | --- | --- |
| O=C(CCCCCCC(=O)Nc1ccc([C@H]2O[C@@H](CSc3nc(-c4ccccc4)c(-c4ccccc4)o3)C[C@@H](c3ccc(CO)cc3)O2)cc1)NO [tubacin] | larger FRET ratio |  |  |  |
| COc1cc([C@@H]2c3cc4c(cc3[C@@H](O[C@@H]3O[C@@H]5CO[C@@H](C)O[C@H]5[C@H](O)[C@H]3O)[C@H]3COC(=O)[C@H]23)OCO4)cc(OC)c1O [etoposide] | larger FRET ratio |  |  |  |
| c1cnc2c(c1)ccc1cccnc12 [Phenanthroline] |  | 710 M⁻¹ | clear difference in FRED ratio |  |
| CC(/C=C/C(=O)NO)=C\[C@@H](C)C(=O)c1ccc(N(C)C)cc1 [trichostatin A] | larger FRET ratio |  |  |  |
| Cc1c2oc3c(C)ccc(C(=O)N[C@@H]4C(=O)N[C@H](C(C)C)C(=O)N5CCC[C@H]5C(=O)N(C)CC(=O)N(C)[C@@H](C(C)C)C(=O)O[C@@H]4C)c3nc-2c(C(=O)N[C@@H]2C(=O)N[C@H](C(C)C)C(=O)N3CCC[C@H]3C(=O)N(C)CC(=O)N(C)[C@@H](C(C)C)C(=O)O[C@@H]2C)c(N)c1=O [DACTINOMYCIN] (I: T[dV]P[Sar][NMeV] / II: T[dV]P[Sar][NMeV]; ester I:1-I:C, II:1-II:C; linker I:N-II:N via Actinocin(9to1)) |  | 2e+06 M⁻¹ | drop if the FRET efficiency upon intercalation within the cell | FRET ratio [3]: 0.4765; FRET ratio as a function of intercalator concentration ([2]; linear probe in solution, excited at 500 nm, peak acceptor/peak donor): decreases; FRET ratio (Cy5:Cy3) in cells in presence of intercalating drug vs no drug (DNA within living cells; listed as Actinomycin D): decrease in the FRET ratio; also recorded: clear difference in FRED ratio; time-course of drug entry into the cell (drop in FRET ratio within the nucleus) (DNA within living cells; time-lapse after drug was introduced into the culture medium): from orange (high FRET) to green (low FRET) |
| CS[C@H]1SC[C@H]2C(=O)N(C)[C@@H](C(C)C)C(=O)OC[C@@H](NC(=O)c3cnc4ccccc4n3)C(=O)N[C@@H](C)C(=O)N(C)[C@@H]1C(=O)N(C)[C@@H](C(C)C)C(=O)OC[C@@H](NC(=O)c1cnc3ccccc3n1)C(=O)N[C@@H](C)C(=O)N2C [Echinomycin] |  | 400000 M⁻¹ | clear difference in FRED ratio |  |
